Laboratory results published in patent publication US4526989A, “1,4-Bis (substituted-amino)-5,8-dihydroxy-anthraquinones and leuco bases thereof” (priority 1979, dated 1985).

What was measured:
melanotic melanoma B16 = test: Melanotic Melanoma B16 test; format: in vivo, C57BC/6 mice; settings: days 1 through 9
Procedure: The animals used are C57BC/6 mice, all of the same sex, weighing a minimum of 17 g. and all within a 3-g. weight range. There are normally 10 animals per test group. A one-gram portion of melanotic melanoma B16 tumor is homogenized in 10 ml. of cold balanced salt solution and a 0.5-ml. aliquot of the homogenate is implanted intraperitoneally into each of the test mice. The test compounds are administered intraperitoneally on days one through 9 (relative to tumor inoculation) at various doses. The animals are weighed and survivors are recorded on a regular basis for 60 days. The median survival time and the ratio of survival time for treated (T)/control (C) animals are calculated. […] The criterion for efficacy is T/C×100≥125%.

[1] = test system: lymphocytic leukemia P388; test: Lymphocytic leukemia P388 test (intraperitoneal administration); format: in vivo, DBA/2 mice; settings: days 1, 5 and 9
Summary of the method: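 DBA/2 mice, single sex, 5-6 per group, inoculated i.p. with 10^6 P388 leukemia cells. Compounds given i.p. at various doses on days 1, 5 and 9; survival followed 30 days, reporting median survival time and treated/control (T/C) survival ratio.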

[2] = 25 mg./kg. i.p., efficacy ≥125%
[3] = 50 mg./kg. i.p., efficacy ≥125%
[4] = Mus musculus, P388, ip, 6.2 mg./kg. i.p., efficacy ≥125%, read-out: T/C × 100
[5] = Mus musculus, P388, ip, 12.5 mg./kg. i.p., efficacy ≥125%, read-out: T/C × 100
[6] = Mus musculus, P388, ip, 25 mg./kg. i.p., efficacy ≥125%, read-out: T/C × 100
[7] = Mus musculus, P388, ip, 50 mg./kg. i.p., efficacy ≥125%, read-out: T/C × 100

Structure (SMILES) | Median Survival Time (melanotic melanoma B16; 6 mg./kg. i.p.) [days] | Median Survival Time (melanotic melanoma B16; 12 mg./kg. i.p.) [days] | Median Survival Time (melanotic melanoma B16; 25 mg./kg. i.p.) [days] | Median Survival Time (melanotic melanoma B16; 50 mg./kg. i.p.) [days] | Median Survival Time ([1]; 12.5 mg./kg. i.p.) [days] | Median Survival Time ([1]; 25 mg./kg. i.p.) [days] | Median Survival Time ([1]; 50 mg./kg. i.p.) [days] | Median Survival Time ([1]; 100 mg./kg. i.p.) [days] | Median Survival Time ([1]; 6.2 mg./kg. i.p.) [days] | response vs control in vivo at 6.2 mg/kg [1, 4] [%] | response vs control in vivo at 12.5 mg/kg [1, 5] [%] | response vs control in vivo at 25 mg/kg [1, 6] [%] | response vs control in vivo at 50 mg/kg [1, 7] [%] | also measured
CC(C)NCCNC1=C2C(=O)c3c(O)ccc(O)c3C(=O)C2=C(NCCNC(C)C)CC1 [Leuco-1,4-bis[2-(2-isopropylamino)ethylamino]-5,8-dihydroxyanthraquinone] | 25.0 | 30.0 | 31.0 | 6.5 | 15.0 | 17.0 | 19.0 | 8.0 |  |  |  |  |  | T/C × 100 (melanotic melanoma B16; 6 mg./kg. i.p., efficacy ≥125%): 151%; T/C × 100 (melanotic melanoma B16; 12 mg./kg. i.p., efficacy ≥125%): 182%; T/C × 100 (melanotic melanoma B16; [2]): 188%; T/C × 100 (melanotic melanoma B16; [3]): 39%; T/C × 100 ([1]; 12.5 mg./kg. i.p., efficacy ≥125%): 136%; T/C × 100 [1, 2]: 155%; T/C × 100 [1, 3]: 173%; T/C × 100 ([1]; 100 mg./kg. i.p., efficacy ≥125%): 73%
CNCCNCCNC1=C2C(=O)c3c(O)ccc(O)c3C(=O)C2=C(NCCNCCNC)CC1 [Leuco-1,4-bis[2-(2-methylaminoethylamino)ethylamino]-5,8-dihydroxyanthraquinone] |  |  | 35.0 | 12.5 | 16.0 | 21.0 | 28.0 | 26.0 | 15.0 | 136 | 145 | 191 | 255 | Median Survival Time (melanotic melanoma B16; 6.2 mg./kg. i.p.): 28.5 days; Median Survival Time (melanotic melanoma B16; 12.5 mg./kg. i.p.): 39.5 days; response vs control in vivo at 6.2 mg/kg (melanotic melanoma B16; Mus musculus, ip, 6.2 mg./kg. i.p., efficacy ≥125%, read-out: T/C × 100): 168%; response vs control in vivo at 12.5 mg/kg (melanotic melanoma B16; Mus musculus, ip, 12.5 mg./kg. i.p., efficacy ≥125%, read-out: T/C × 100): 232%; response vs control in vivo at 25 mg/kg (melanotic melanoma B16; Mus musculus, ip, 25 mg./kg. i.p., efficacy ≥125%, read-out: T/C × 100): 206%; response vs control in vivo at 50 mg/kg (melanotic melanoma B16; Mus musculus, ip, 50 mg./kg. i.p., efficacy ≥125%, read-out: T/C × 100): 73%; Median Survival Time ([1]; 200 mg./kg. i.p.): 2.0 days; response vs control in vivo at 100 mg/kg ([1]; Mus musculus, P388, ip, 100 mg./kg. i.p., efficacy ≥125%, read-out: T/C × 100): 236%; response vs control in vivo at 200 mg/kg ([1]; Mus musculus, P388, ip, 200 mg./kg. i.p., efficacy ≥125%, read-out: T/C × 100): 18%
CNCCNC1=C2C(=O)c3c(O)ccc(O)c3C(=O)C2=C(NCCNC)CC1 [Leuco-1,4-bis[2-(methylamino)ethylamino]-5,8-dihydroxyanthraquinone] | 32.5 | 28.0 |  |  | 19.0 | 19.0 | 6.0 |  | 21.0 | 191 | 173 | 173 | 55 | Median Survival Time (melanotic melanoma B16; 0.7 mg./kg. i.p.): 27.5 days; Median Survival Time (melanotic melanoma B16; 1.5 mg./kg. i.p.): 36.0 days; Median Survival Time (melanotic melanoma B16; 3 mg./kg. i.p.): 31.0 days; response vs control in vivo at 0.7 mg/kg (melanotic melanoma B16; Mus musculus, ip, 0.7 mg./kg. i.p., efficacy ≥125%, read-out: T/C × 100): 172%; response vs control in vivo at 1.5 mg/kg (melanotic melanoma B16; Mus musculus, ip, 1.5 mg./kg. i.p., efficacy ≥125%, read-out: T/C × 100): 225%; response vs control in vivo at 3 mg/kg (melanotic melanoma B16; Mus musculus, ip, 3 mg./kg. i.p., efficacy ≥125%, read-out: T/C × 100): 194%; response vs control in vivo at 6 mg/kg (melanotic melanoma B16; Mus musculus, ip, 6 mg./kg. i.p., efficacy ≥125%, read-out: T/C × 100): 203%; response vs control in vivo at 12 mg/kg (melanotic melanoma B16; Mus musculus, ip, 12 mg./kg. i.p., efficacy ≥125%, read-out: T/C × 100): 175%; Median Survival Time ([1]; 1.5 mg./kg. i.p.): 13.0 days; Median Survival Time ([1]; 3.1 mg./kg. i.p.): 15.0 days; response vs control in vivo at 1.5 mg/kg ([1]; Mus musculus, P388, ip, 1.5 mg./kg. i.p., efficacy ≥125%, read-out: T/C × 100): 118%; response vs control in vivo at 3.1 mg/kg ([1]; Mus musculus, P388, ip, 3.1 mg./kg. i.p., efficacy ≥125%, read-out: T/C × 100): 136%
